Measured values published in patent US11542235B2, “Herbicidal 3-azaspiro[5.5] undecane-8, 10-dione compounds” (SYNGENTA PARTICIPATIONS AG, priority 2018, dated 2023).

Tests used:
Type in all cases: in vivo
[1] = test system: Avena fatua (AVEFA); test: Glasshouse herbicidal test, pre- and post-emergence, Avena fatua; details: 250 g/h, evaluated after 13 days, five point scale; for percentage damage caused to the plant, AVEFA POST: post-emergence; for percentage damage caused to the plant, AVEFA PRE: pre-emergence
Procedure: (§1) Seeds of a variety of test species are sown in standard soil in pots (Lolium perenne (LOLPE), Setaria faberi (SETFA), Alopecurus myosuroides (ALOMY), Echinochloa crus-galli (ECHCG), Avena fatua (AVEFA)). After cultivation for one day (pre-emergence) or after 8 days cultivation (post-emergence) under controlled conditions in a glasshouse (at 24/16° C., day/night; 14 hours light; 65% humidity), the plants are sprayed with an aqueous spray solution derived from the formulation of the technical active ingredient in acetone/water (50:50) solution containing 0.5% Tween 20 (polyoxyethelyene sorbitan monolaurate, CAS RN 9005-64-5). Compounds are applied at […]. The test plants are then grown in a glasshouse under controlled conditions in a glasshouse (at 24/16° C., day/night; 14 hours light; 65% humidity) and watered twice daily. After 13 days for pre and post-emergence, the test is evaluated for the percentage damage caused to the plant. The biological activities are shown in the following table on a five point scale (5=80-100%; 4=60-79%; 3=40-59%; 2=20-39%; 1=0-19%).

[2] = test system: Setaria faberi (SETFA); test: Glasshouse herbicidal test, pre- and post-emergence, Setaria faberi; details: 250 g/h, evaluated after 13 days, five point scale; for percentage damage caused to the plant, SETFA POST: post-emergence; for percentage damage caused to the plant, SETFA PRE: pre-emergence
Procedure: as §1

[3] = test system: Alopecurus myosuroides (ALOMY); test: Glasshouse herbicidal test, pre- and post-emergence, Alopecurus myosuroides; details: 250 g/h, evaluated after 13 days, five point scale; for percentage damage caused to the plant, ALOMY POST: post-emergence; for percentage damage caused to the plant, ALOMY PRE: pre-emergence
Procedure: as §1

[4] = test system: Echinochloa crus-galli (ECHCG); test: Glasshouse herbicidal test, pre- and post-emergence, Echinochloa crus-galli; details: 250 g/h, evaluated after 13 days, five point scale; for percentage damage caused to the plant, ECHCG POST: post-emergence; for percentage damage caused to the plant, ECHCG PRE: pre-emergence
Procedure: as §1

[5] = test system: Lolium perenne (LOLPE); test: Glasshouse herbicidal test, pre- and post-emergence, Lolium perenne; details: 250 g/h, evaluated after 13 days, five point scale; for percentage damage caused to the plant, LOLPE POST: post-emergence; for percentage damage caused to the plant, LOLPE PRE: pre-emergence
Procedure: as §1

CC#Cc1cc(OC)c(C2C(=O)CC3(CCN(OC)CC3)CC2=O)c(OC)c1 [Compound A4]
5 (5=80-100%): percentage damage caused to the plant, AVEFA POST [1] | percentage damage caused to the plant, AVEFA PRE [1] | percentage damage caused to the plant, SETFA POST [2] | percentage damage caused to the plant, SETFA PRE [2] | percentage damage caused to the plant, ALOMY POST [3] | percentage damage caused to the plant, ALOMY PRE [3] | percentage damage caused to the plant, ECHCG POST [4] | percentage damage caused to the plant, ECHCG PRE [4] | percentage damage caused to the plant, LOLPE POST [5] | percentage damage caused to the plant, LOLPE PRE [5]

CC#Cc1cc(C)c(C2C(=O)CC3(CCN(C(=O)C(F)(F)F)CC3)CC2=O)c(C)c1 [Compound A5]
5 (5=80-100%): percentage damage caused to the plant, AVEFA POST [1] | percentage damage caused to the plant, AVEFA PRE [1] | percentage damage caused to the plant, SETFA POST [2] | percentage damage caused to the plant, SETFA PRE [2] | percentage damage caused to the plant, ALOMY POST [3] | percentage damage caused to the plant, ALOMY PRE [3] | percentage damage caused to the plant, ECHCG POST [4] | percentage damage caused to the plant, ECHCG PRE [4] | percentage damage caused to the plant, LOLPE POST [5] | percentage damage caused to the plant, LOLPE PRE [5]

CC#Cc1cc(C)c(C2C(=O)CC3(CCN(C(=O)C(F)F)CC3)CC2=O)c(C)c1 [Compound A6]
5 (5=80-100%): percentage damage caused to the plant, AVEFA POST [1] | percentage damage caused to the plant, AVEFA PRE [1] | percentage damage caused to the plant, SETFA POST [2] | percentage damage caused to the plant, SETFA PRE [2] | percentage damage caused to the plant, ALOMY POST [3] | percentage damage caused to the plant, ALOMY PRE [3] | percentage damage caused to the plant, ECHCG POST [4] | percentage damage caused to the plant, ECHCG PRE [4] | percentage damage caused to the plant, LOLPE POST [5] | percentage damage caused to the plant, LOLPE PRE [5]

CC#Cc1cc(C)c(C2C(=O)CC3(CCN(CC(F)(F)F)CC3)CC2=O)c(C)c1 [Compound A7]
5 (5=80-100%): percentage damage caused to the plant, AVEFA POST [1] | percentage damage caused to the plant, AVEFA PRE [1] | percentage damage caused to the plant, SETFA POST [2] | percentage damage caused to the plant, SETFA PRE [2] | percentage damage caused to the plant, ALOMY POST [3] | percentage damage caused to the plant, ALOMY PRE [3] | percentage damage caused to the plant, ECHCG POST [4] | percentage damage caused to the plant, ECHCG PRE [4] | percentage damage caused to the plant, LOLPE POST [5] | percentage damage caused to the plant, LOLPE PRE [5]

CC#Cc1cc(C)c(C2C(=O)CC3(CCN(OC)CC3)CC2=O)c(C)c1 [Compound A8]
5 (5=80-100%): percentage damage caused to the plant, AVEFA POST [1] | percentage damage caused to the plant, AVEFA PRE [1] | percentage damage caused to the plant, SETFA POST [2] | percentage damage caused to the plant, SETFA PRE [2] | percentage damage caused to the plant, ALOMY POST [3] | percentage damage caused to the plant, ALOMY PRE [3] | percentage damage caused to the plant, ECHCG POST [4] | percentage damage caused to the plant, ECHCG PRE [4] | percentage damage caused to the plant, LOLPE POST [5] | percentage damage caused to the plant, LOLPE PRE [5]

CC#Cc1cc(C)c(C2C(=O)CC3(CCN(C(=O)C(C)C)CC3)CC2=O)c(C)c1 [Compound A11]
5 (5=80-100%): percentage damage caused to the plant, AVEFA POST [1] | percentage damage caused to the plant, AVEFA PRE [1] | percentage damage caused to the plant, SETFA POST [2] | percentage damage caused to the plant, SETFA PRE [2] | percentage damage caused to the plant, ALOMY POST [3] | percentage damage caused to the plant, ALOMY PRE [3] | percentage damage caused to the plant, ECHCG POST [4] | percentage damage caused to the plant, ECHCG PRE [4] | percentage damage caused to the plant, LOLPE POST [5] | percentage damage caused to the plant, LOLPE PRE [5]

CC#Cc1cc(C)c(C2C(=O)CC3(CCN(C(=O)C(C)(C)C)CC3)CC2=O)c(C)c1 [Compound A12]
5 (5=80-100%): percentage damage caused to the plant, AVEFA POST [1] | percentage damage caused to the plant, AVEFA PRE [1] | percentage damage caused to the plant, SETFA POST [2] | percentage damage caused to the plant, SETFA PRE [2] | percentage damage caused to the plant, ALOMY POST [3] | percentage damage caused to the plant, ALOMY PRE [3] | percentage damage caused to the plant, ECHCG POST [4] | percentage damage caused to the plant, ECHCG PRE [4] | percentage damage caused to the plant, LOLPE POST [5] | percentage damage caused to the plant, LOLPE PRE [5]

CC#Cc1cc(OC)c(C2C(=O)CC3(CCN(C(C)=O)CC3)CC2=O)c(OC)c1 [Compound A14]
5 (5=80-100%): percentage damage caused to the plant, AVEFA POST [1] | percentage damage caused to the plant, AVEFA PRE [1] | percentage damage caused to the plant, SETFA POST [2] | percentage damage caused to the plant, SETFA PRE [2] | percentage damage caused to the plant, ALOMY POST [3] | percentage damage caused to the plant, ALOMY PRE [3] | percentage damage caused to the plant, ECHCG POST [4] | percentage damage caused to the plant, ECHCG PRE [4] | percentage damage caused to the plant, LOLPE POST [5] | percentage damage caused to the plant, LOLPE PRE [5]

CC#Cc1cc(C)c(C2C(=O)CC3(CCN(C(C)=O)CC3)CC2=O)c(OC)c1 [Compound A15]
5 (5=80-100%): percentage damage caused to the plant, AVEFA POST [1] | percentage damage caused to the plant, AVEFA PRE [1] | percentage damage caused to the plant, SETFA POST [2] | percentage damage caused to the plant, SETFA PRE [2] | percentage damage caused to the plant, ALOMY POST [3] | percentage damage caused to the plant, ALOMY PRE [3] | percentage damage caused to the plant, ECHCG POST [4] | percentage damage caused to the plant, ECHCG PRE [4] | percentage damage caused to the plant, LOLPE POST [5] | percentage damage caused to the plant, LOLPE PRE [5]

CC#Cc1cc(C)c(C2=C(O)CC3(CCN(C(C)=O)CC3)CC2=O)c(C)c1 [Compound A17]
5 (5=80-100%): percentage damage caused to the plant, AVEFA POST [1] | percentage damage caused to the plant, AVEFA PRE [1] | percentage damage caused to the plant, SETFA POST [2] | percentage damage caused to the plant, SETFA PRE [2] | percentage damage caused to the plant, ALOMY POST [3] | percentage damage caused to the plant, ALOMY PRE [3] | percentage damage caused to the plant, ECHCG POST [4] | percentage damage caused to the plant, ECHCG PRE [4] | percentage damage caused to the plant, LOLPE POST [5] | percentage damage caused to the plant, LOLPE PRE [5]

CC#Cc1cc(C)c(C2=C([O-])CC3(CCN(C(C)=O)CC3)CC2=O)c(C)c1.[Na+] [Compound A18]
5 (5=80-100%): percentage damage caused to the plant, AVEFA POST [1] | percentage damage caused to the plant, AVEFA PRE [1] | percentage damage caused to the plant, SETFA POST [2] | percentage damage caused to the plant, SETFA PRE [2] | percentage damage caused to the plant, ALOMY POST [3] | percentage damage caused to the plant, ALOMY PRE [3] | percentage damage caused to the plant, ECHCG POST [4] | percentage damage caused to the plant, ECHCG PRE [4] | percentage damage caused to the plant, LOLPE POST [5] | percentage damage caused to the plant, LOLPE PRE [5]

CC#Cc1cc(C)c(C2C(=O)CC3(CCN(C(=O)C(F)F)CC3)CC2=O)c(OC)c1 [Compound A19]
5 (5=80-100%): percentage damage caused to the plant, AVEFA POST [1] | percentage damage caused to the plant, AVEFA PRE [1] | percentage damage caused to the plant, SETFA POST [2] | percentage damage caused to the plant, SETFA PRE [2] | percentage damage caused to the plant, ALOMY POST [3] | percentage damage caused to the plant, ALOMY PRE [3] | percentage damage caused to the plant, ECHCG PRE [4] | percentage damage caused to the plant, LOLPE POST [5] | percentage damage caused to the plant, LOLPE PRE [5]

CC#Cc1cc(C)c(C2C(=O)CC3(CCN(C(=O)C(C)(C)C)CC3)CC2=O)c(OC)c1 [Compound A20]
5 (5=80-100%): percentage damage caused to the plant, AVEFA POST [1] | percentage damage caused to the plant, AVEFA PRE [1] | percentage damage caused to the plant, SETFA POST [2] | percentage damage caused to the plant, SETFA PRE [2] | percentage damage caused to the plant, ALOMY POST [3] | percentage damage caused to the plant, ALOMY PRE [3] | percentage damage caused to the plant, ECHCG POST [4] | percentage damage caused to the plant, ECHCG PRE [4] | percentage damage caused to the plant, LOLPE POST [5] | percentage damage caused to the plant, LOLPE PRE [5]

CC#Cc1cc(C)c(C2C(=O)CC3(CCN(C(=O)C(C)F)CC3)CC2=O)c(C)c1 (stereo not shown) [Compound A21]
5 (5=80-100%): percentage damage caused to the plant, AVEFA POST [1] | percentage damage caused to the plant, AVEFA PRE [1] | percentage damage caused to the plant, SETFA POST [2] | percentage damage caused to the plant, SETFA PRE [2] | percentage damage caused to the plant, ALOMY POST [3] | percentage damage caused to the plant, ALOMY PRE [3] | percentage damage caused to the plant, ECHCG POST [4] | percentage damage caused to the plant, ECHCG PRE [4] | percentage damage caused to the plant, LOLPE POST [5] | percentage damage caused to the plant, LOLPE PRE [5]
